Molecular target: T1, GPX4 (Homo sapiens, UniProt P36969)
T1 sequence (P36969 1-170 isoform P36969-2): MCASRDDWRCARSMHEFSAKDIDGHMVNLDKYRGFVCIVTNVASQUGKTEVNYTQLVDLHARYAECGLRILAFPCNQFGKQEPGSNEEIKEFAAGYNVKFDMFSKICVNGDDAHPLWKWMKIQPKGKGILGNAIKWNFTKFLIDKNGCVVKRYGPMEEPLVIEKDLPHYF
Test: GPX4 activity assay in cell lysates (NADPH-coupled)
Assay type: biochemical
Parameters: endogenous in cells; host or cells: A-673 cell lysate
Protocol: Determination of GPX4 activity in cell lysates was performed as previously described by Roveri et al. 1994 with minor modifications. Briefly, the assay measures the consumption of NADPH, which has a characteristic absorbance at 340 nm, over time as a proxy for GPX4 activity. The rationale for this is that as GPX4 reduces phospholipid hydroperoxides, it oxidizes glutathione, which is then regenerated by glutathione reductase at the expense of NADPH. NADPH is added to the assay in excess such that the reduction of oxidized glutathione is not the rate-limiting reaction in the assay. Thus, the resulting reduction in NADPH absorbance over time reflects GPX4 activity.
The GPX4-specific substrate phosphatidylcholine hydroperoxide (PCOOH) was prepared by enzymatic hydroperoxidation. Specifically, 0.3 mM phosphatidylcholines (Sigma-Aldrich) were incubated with 0.7 mg soybean lipoxidase type IV (Sigma-Aldrich) in 22 mL of 0.2 M Tris-HCl pH 8.8 with 3 mM sodium deoxycholate at room temperature under continuous stirring for 30 minutes. A Sep-Pak C18 cartridge (Waters-Millipore) was pre-washed with methanol and equilibrated with water, then the substrate mixture was loaded. The column was washed with 10 volumes of water and PCOOH was eluted with 2 mL of methanol.
To prepare the cell lysate containing native GPX4, A-673 cells were cultured with 20 nM sodium selenite to confluency over two days then harvested and washed with cold PBS. Cells were then resuspended at 10 million cells per 1 mL LCW lysis buffer (0.5% peroxide-free Triton X-100, 0.5% sodium deoxycholate salt, 150 mM NaCl, 20 mM Tris-HCl pH 7.5, 10 mM EDTA, 30 mM sodium pyrophosphate, and complete protease inhibitor cocktail), vortexed for 30 seconds, and incubated on ice for 15 minutes. After lysis, the lysates were centrifuged at 14,000×g and 4° C. for 15 minutes. The supernatants were transferred to new pre-chilled tube and the debris pellet was discarded. The protein concentration in the lysate was determined for normalization using the BCA Protein Assay Kit (Pierce).
To measure GPX4 activity, 50 μL of cell lysate was combined with 200 μL activity assay buffer (0.1% Triton X-100, 100 mM Tris-HCl pH 8.0, 10 mM sodium azide, 5 mM EDTA, 0.6 IU/mL glutathione reductase, 0.5 mM NADPH and 3 mM GSH) and compounds of interest in a clear 96-well plate and incubated at 37° C. for 45 minutes. Compounds were dissolved in DMSO. All conditions were tested in triplicate. PCOOH substrate was added to the mixture to initiate GPX4 activity just before reading the plate. The absorbance of NADPH at 340 nm was monitored kinetically over time for 25 minutes. Buffer-only controls and controls without substrate containing only the methanol vehicle were performed to assess background and baseline signal. GPX4 activity was calculated as previously reported by Stolwijk et al. 2020 and results were analyzed in GraphPad Prism 9.

Cc1onc(C(=O)OCC(C)(C)NC(=O)c2nn(C)c3ccccc23)c1[N+](=O)[O-] [QW-363]
GPX4% inhibition at 200 (μM) (generation 2): −15.4 ± 8.4%

C=CC(=O)OCC(C)(C)NC(=O)c1nn(C)c2ccccc12 [QW-366]
GPX4% inhibition at 200 (μM) (generation 2): −7.3 ± 0.5%

Cn1nc(C(=O)NC(C)(C)COC(=O)C#C[Si](C)(C)C)c2ccccc21 [QW-367]
GPX4% inhibition at 200 (μM) (generation 2): 7.0 ± 3.9%

Cn1nc(C(=O)N2CCN(C(=O)CCl)CC2)c2ccccc21 [QW-370]
GPX4% inhibition at 20 (μM) (generation 2): 0.5 ± 5.4%

Cc1onc(C(=O)N2CCN(C(=O)c3nn(C)c4ccccc34)CC2)c1[N+](=O)[O-] [QW-371]
GPX4% inhibition at 20 (μM) (generation 2): 2.9 ± 2.2%

Cn1nc(C(=O)NC(C)(C)COC(=O)C(F)Cl)c2ccccc21 (stereo not shown) [QW-374]
GPX4% inhibition at 20 (μM) (generation 2): 1.6 ± 3.0%

Cn1nc(C(=O)NC(C)(C)COC(=O)CCl)c2ccc([N+](=O)[O-])cc21 [QW-380]
GPX4% inhibition at 5 μM (generation 2): 62.1 ± 2.4%

Cn1nc(C(=O)NC(C)(C)C=O)c2ccccc21 [QW-387]
GPX4% inhibition at 20 (μM) (generation 2): 4.1 ± 4.7%

Cn1nc(C(=O)NC(C)(C)CC=O)c2ccccc21 [QW-388]
GPX4% inhibition at 20 (μM) (generation 2): 1.6 ± 1.9%

Cn1nc(C(=O)NC(C)(C)C(O)S(=O)(=O)[O-])c2ccccc21.[Na+] (stereo not shown) [QW-389]
GPX4% inhibition at 20 (μM) (generation 2): 32.2 ± 2.5%

CC(C)(COC(=O)CCl)NC(=O)c1n[nH]c2ncccc12 [QW-390]
GPX4% inhibition at 20 (μM) (generation 2): 4.0 ± 3.9%

CC(C)(COC(=O)CCl)NC(=O)c1ncn2ccccc12 [QW-391]
GPX4% inhibition at 20 (μM) (generation 2): 5.3 ± 8.5%

Cn1nc(C(=O)NC(C)(C)CC(O)S(=O)(=O)[O-])c2ccccc21.[Na+] (stereo not shown) [QW-394]
GPX4% inhibition at 5 μM (generation 2): 4.5 ± 17.8%

COc1cccc2c(C(=O)NC(C)(C)COC(=O)CCl)nn(C)c12 [QW-398]
GPX4% inhibition at 5 μM (generation 2): 20.3 ± 9.5%

CC(C)(COC(=O)CCl)NC(=O)c1nc2cc(Br)ccc2[nH]1 [QW-407]
GPX4% inhibition at 5 μM (generation 2): −14.3 ± 5.2%

CC=CC(=O)OCC(C)(C)NC(=O)c1nn(C)c2ccccc12 [QW-411]
GPX4% inhibition at 5 μM (generation 2): −6.0 ± 3.1%

COC(=O)C=CC(=O)OCC(C)(C)NC(=O)c1nn(C)c2ccccc12 [QW-412]
GPX4% inhibition at 5 μM (generation 2): −5.7 ± 8.0%

CC=CC(=O)OCC(C)(C)NC(=O)c1nn(C)c2cc(Br)ccc12 [QW-414]
GPX4% inhibition at 5 μM (generation 2): −9.1 ± 13.4%

COC(=O)C=CC(=O)OCC(C)(C)NC(=O)c1nn(C)c2cc(Br)ccc12 [QW-415]
GPX4% inhibition at 5 μM (generation 2): −9.4 ± 8.1%

Cn1nc(C(=O)NC(C)(C)COC(=O)CBr)c2ccc(Br)cc21 [QW-416]
GPX4% inhibition at 5 μM (generation 2): 25.3 ± 13.4%

C=CC(=O)OCC(C)(C)NC(=O)c1nn(C)c2cc(Br)ccc12 [QW-417]
GPX4 inhibitory activity, result in words: inactive during GPX4 inhibition
GPX4% inhibition at 5 μM (generation 2): −5.2 ± 10.0%

Cn1nc(C(=O)NC(C)(C)COC(=O)C#C[Si](C)(C)C)c2ccc(Br)cc21 [QW-418]
GPX4% inhibition at 5 μM (generation 2): −5.6 ± 5.1%

C#CC(=O)OCC(C)(C)NC(=O)c1nn(C)c2cc(Br)ccc12 [QW-420]
GPX4% inhibition at 5 μM (generation 2): −10.9 ± 8.0%

Cn1nc(C(=O)NC(C)(C)COC(=O)CCl)c2cccnc21 [QW-426]
GPX4% inhibition at 5 μM (generation 2): −11.3 ± 4.7%

Cc1cc(C(=O)OCC(C)(C)NC(=O)c2nn(C)c3cc(Br)ccc23)no1 [QW-429]
GPX4% inhibition at 5 μM (generation 2): −2.3 ± 2.3%

Cn1nc(C(=O)NC(C)(C)COC(=O)CCl)c2ccc(-c3ccc(F)nc3)cc21 [QW-444]
GPX4% inhibition at 5 μM: 34.1 ± 0.3%

Cn1nc(C(=O)NC(C)(C)COC(=O)CCl)c2ccc(-c3ccc(C#N)cc3)cc21 [QW-445]
GPX4 inhibitory activity, result in words: inactive during GPX4 inhibition
GPX4% inhibition at 5 μM: 21.2 ± 5.7%

Cn1nc(C(=O)NC(C)(C)COC(=O)CCl)c2ccc(-c3ccoc3)cc21 [QW-451]
GPX4% inhibition at 5 μM: 37.7 ± 4.1%

Cn1nc(C(=O)NC(C)(C)COC(=O)CCl)c2ccc(-c3cccc([N+](=O)[O-])c3)cc21 [QW-452]
GPX4% inhibition at 5 μM: 55.0 ± 5.8%
GPX4 inhibition rate (concentration not given): 50%

Cn1nc(C(=O)NC(C)(C)COC(=O)CCl)c2ccc(-c3cc4ccccc4[nH]3)cc21 [QW-453]
GPX4% inhibition at 5 μM: 67.0 ± 4.7%

Cn1nc(C(=O)NC(C)(C)COC(=O)CCl)c2ccc(-c3ccc4c(c3)OCCO4)cc21 [QW-457]
GPX4% inhibition at 5 μM: 54.4 ± 7.2%

Cn1nc(C(=O)NC(C)(C)COC(=O)CCl)c2ccc(-c3cccc4[nH]ccc34)cc21 [QW-467]
GPX4% inhibition at 5 μM: −10.3 ± 4.3%

Cn1nc(C(=O)NC(C)(C)COC(=O)CCl)c2ccc(-c3ccc(OC(F)(F)F)cc3)cc21 [QW-469]
GPX4% inhibition at 5 μM: 64.3 ± 0.7%

COc1cc(-c2ccc3c(C(=O)NC(C)(C)COC(=O)CCl)nn(C)c3c2)cc(OC)c1OC [QW-479]
GPX4% inhibition at 5 μM: 59.6 ± 6.8%

COc1ccccc1-c1ccc2c(C(=O)NC(C)(C)COC(=O)CCl)nn(C)c2c1 [QW-483]
GPX4% inhibition at 5 μM: 35.8 ± 7.4%

COc1cccc(OC)c1-c1ccc2c(C(=O)NC(C)(C)COC(=O)CCl)nn(C)c2c1 [QW-487]
GPX4 inhibitory activity, result in words: completely loss of the inhibitory effect
GPX4% inhibition at 5 μM: 3.3 ± 3.0%

Cn1nc(C(=O)NC(C)(C)COC(=O)CCl)c2ccc(-c3ccccc3Cl)cc21 [QW-492]
GPX4% inhibition at 5 μM: 45.7 ± 4.9%

Cn1nc(C(=O)NC(C)(C)COC(=O)CCl)c2ccc(-c3cccc(F)c3)cc21 [QW-493]
GPX4% inhibition at 5 μM: 77.1 ± 10.4%

Cn1nc(C(=O)NC(C)(C)COC(=O)CCl)c2ccc(-c3ccc(Cl)cc3)cc21 [QW-494]
GPX4% inhibition at 5 μM: 76.8 ± 2.3%

CC(C)Oc1ccc(Cl)cc1-c1ccc2c(C(=O)NC(C)(C)COC(=O)CCl)nn(C)c2c1 [QW-495]
GPX4% inhibition at 5 μM: 22.9 ± 7.5%

Cn1nc(C(=O)NCCCCCC=O)c2ccc(Br)cc21 [QW-497]
GPX4% inhibition at 5 μM (generation 2): −15.1 ± 8.4%

Cn1nc(C(=O)NC(C)(C)COC(=O)CCl)c2ccc(-c3ccc(F)c(F)c3)cc21 [QW-500]
GPX4% inhibition at 5 μM: 57.5 ± 5.3%

Cn1nc(C(=O)NC(C)(C)COC(=O)CCl)c2ccc(-c3ccc(C(F)(F)F)cc3)cc21 [QW-502]
GPX4 inhibitory activity, result in words: inactive during GPX4 inhibition
GPX4% inhibition at 5 μM: −10.2 ± 6.5%

Cn1nc(C(=O)NC(C)(C)COC(=O)CCl)c2ccc(-c3ccc(OCc4ccccc4)cc3)cc21 [QW-503]
GPX4% inhibition at 5 μM: 65.3 ± 3.2%

CC(C)Oc1ccccc1-c1ccc2c(C(=O)NC(C)(C)COC(=O)CCl)nn(C)c2c1 [QW-509]
GPX4% inhibition at 5 μM: 28.3 ± 3.0%

Cn1nc(C(=O)NC(C)(C)COC(=O)CCl)c2ccc(-c3cccc(OC(=O)CCl)c3)cc21 [QW-510]
GPX4% inhibition at 5 μM: 67.2 ± 1.9%

Cn1nc(C(=O)NC(C)(C)COC(=O)CCl)c2ccc(-c3ccc(COC(=O)CCl)cc3)cc21 [QW-513]
GPX4% inhibition at 5 μM: 50.1 ± 2.4%

Cn1nc(C(=O)NC(C)(C)COC(=O)CCl)c2ccc(C3=CCc4ccccc43)cc21 [QW-514]
GPX4% inhibition at 5 μM: 44.8 ± 6.6%

Cn1nc(C(=O)NCCCCCC(O)S(=O)(=O)[O-])c2ccc(Br)cc21.[Na+] (stereo not shown) [QW-517]
GPX4% inhibition at 5 μM (generation 2): −10.7 ± 7.8%

Cn1nc(C(=O)NCCCCCCOC(=O)CCl)c2ccc(Br)cc21 [QW-520]
GPX4% inhibition at 5 μM (generation 2): −9.8 ± 6.7%

Cn1nc(C(=O)NCCCCCOC(=O)CCl)c2ccc(Br)cc21 [QW-521]
GPX4% inhibition at 5 μM (generation 2): −19.3 ± 9.9%

Cn1nc(C(=O)NCCCCC=O)c2ccc(Br)cc21 [QW-527]
GPX4% inhibition at 5 μM (generation 2): −24.5 ± 0.5%

Cn1nc(C(=O)NCCCCC(O)S(=O)(=O)[O-])c2ccc(Br)cc21.[Na+] (stereo not shown) [QW-534]
GPX4% inhibition at 5 μM (generation 2): −36.6 ± 4.8%

Reference: US20250248979A1, “NOVEL GPX4 INHIBITORS AND USES THEREOF” (THE TRUSTEES OF COLUMBIA UNIVERSITY IN THE CITY OF NEW YORK, priority 2022, published 2025)
